The source of these data is paper PMC3445516 (PLoS ONE, 2012).

Where two headings read alike, the source gives them in different places.

What all share (experiment): Ambit kinase profiling, competition binding
The target in one assay is T1, CAMKIδ (Homo sapiens, UniProt Q8IU85).
T1 construct: purchased Ambit Biosciences (KINOMEscan)
The note with it: for competition: CAMKIδ, 10 µM. On the procedure: (§1) Also included in the kinase profile are four isoforms of PKC (δ, ε, η, θ) and eight isoforms of CAMKs (CAMKIα, δ, γ; CAMKIIα, β, δ, γ; CAMK4).
(§2) The global kinase profiling experiment was performed by Ambit Biosciences.

Another assay addresses T2, EPHB4 (Homo sapiens, UniProt P54760).
T2 construct: purchased Ambit Biosciences (KINOMEscan)
T2 sequence (P54760 16-987): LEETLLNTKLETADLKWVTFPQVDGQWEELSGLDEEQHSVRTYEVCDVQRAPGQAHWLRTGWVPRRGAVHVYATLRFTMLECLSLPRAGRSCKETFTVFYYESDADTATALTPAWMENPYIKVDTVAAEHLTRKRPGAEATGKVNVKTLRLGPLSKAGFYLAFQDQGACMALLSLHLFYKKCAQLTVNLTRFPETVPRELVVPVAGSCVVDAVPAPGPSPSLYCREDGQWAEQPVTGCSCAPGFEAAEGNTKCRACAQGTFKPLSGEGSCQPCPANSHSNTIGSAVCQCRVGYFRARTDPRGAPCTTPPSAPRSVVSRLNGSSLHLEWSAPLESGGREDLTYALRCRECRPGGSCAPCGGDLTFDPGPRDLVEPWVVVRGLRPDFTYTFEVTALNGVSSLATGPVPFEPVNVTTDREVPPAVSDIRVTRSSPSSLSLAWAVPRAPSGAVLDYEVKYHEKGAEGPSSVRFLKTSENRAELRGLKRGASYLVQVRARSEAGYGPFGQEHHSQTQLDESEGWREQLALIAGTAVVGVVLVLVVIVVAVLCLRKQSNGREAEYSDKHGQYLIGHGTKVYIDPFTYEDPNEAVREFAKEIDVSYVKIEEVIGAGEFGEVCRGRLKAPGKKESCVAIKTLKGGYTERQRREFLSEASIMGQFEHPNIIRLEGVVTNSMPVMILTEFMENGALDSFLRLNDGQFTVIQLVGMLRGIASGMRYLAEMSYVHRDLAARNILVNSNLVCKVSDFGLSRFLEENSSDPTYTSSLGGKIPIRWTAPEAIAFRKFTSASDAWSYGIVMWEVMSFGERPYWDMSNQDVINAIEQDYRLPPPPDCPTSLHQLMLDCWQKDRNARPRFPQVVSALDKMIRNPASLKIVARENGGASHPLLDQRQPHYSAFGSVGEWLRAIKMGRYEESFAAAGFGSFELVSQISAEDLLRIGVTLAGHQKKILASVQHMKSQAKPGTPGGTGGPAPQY
On the procedure:
as §1, §2

Another assay concerns the target T3, FLT3(D835Y) (Homo sapiens, UniProt P36888, D835Y).
T3 construct: purchased Ambit Biosciences (KINOMEscan)
T3 sequence (P36888 27-993 D835Y): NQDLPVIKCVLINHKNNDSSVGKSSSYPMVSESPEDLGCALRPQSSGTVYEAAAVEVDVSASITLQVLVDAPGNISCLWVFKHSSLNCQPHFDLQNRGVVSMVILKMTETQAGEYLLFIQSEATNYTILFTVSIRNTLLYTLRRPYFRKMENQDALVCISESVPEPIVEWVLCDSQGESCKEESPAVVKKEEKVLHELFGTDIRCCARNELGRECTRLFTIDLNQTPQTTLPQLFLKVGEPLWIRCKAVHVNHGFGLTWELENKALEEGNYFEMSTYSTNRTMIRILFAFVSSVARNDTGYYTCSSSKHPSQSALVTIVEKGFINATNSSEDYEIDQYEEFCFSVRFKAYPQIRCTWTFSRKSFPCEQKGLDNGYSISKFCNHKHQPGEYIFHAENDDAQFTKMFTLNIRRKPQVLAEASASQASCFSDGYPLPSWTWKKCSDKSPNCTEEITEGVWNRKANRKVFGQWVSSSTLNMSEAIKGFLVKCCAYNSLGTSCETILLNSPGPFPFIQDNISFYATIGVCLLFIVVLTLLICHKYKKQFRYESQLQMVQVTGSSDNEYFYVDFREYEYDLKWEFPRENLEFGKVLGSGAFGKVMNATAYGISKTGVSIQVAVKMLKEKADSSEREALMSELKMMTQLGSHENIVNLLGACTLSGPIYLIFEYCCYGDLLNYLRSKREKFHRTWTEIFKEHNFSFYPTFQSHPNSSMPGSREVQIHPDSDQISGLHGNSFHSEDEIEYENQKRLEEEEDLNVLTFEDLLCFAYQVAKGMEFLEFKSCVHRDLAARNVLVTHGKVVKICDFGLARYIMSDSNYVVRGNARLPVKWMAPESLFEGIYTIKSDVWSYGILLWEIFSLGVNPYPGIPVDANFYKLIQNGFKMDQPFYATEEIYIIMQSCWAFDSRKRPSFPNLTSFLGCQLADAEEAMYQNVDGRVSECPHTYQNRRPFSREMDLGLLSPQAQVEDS
As for the experimental part: as §1, §2

In a further assay the target is T4, CDK3 (Homo sapiens, UniProt Q00526).
T4 construct: purchased Ambit Biosciences (KINOMEscan)
The note with it: for % Competition: 10 µM. On the procedure:
as §1, §2

The next assay addresses T5, PKC ε (Homo sapiens, UniProt Q02156).
T5 construct: purchased Ambit Biosciences (KINOMEscan)
T5 sequence (Q02156 1-737): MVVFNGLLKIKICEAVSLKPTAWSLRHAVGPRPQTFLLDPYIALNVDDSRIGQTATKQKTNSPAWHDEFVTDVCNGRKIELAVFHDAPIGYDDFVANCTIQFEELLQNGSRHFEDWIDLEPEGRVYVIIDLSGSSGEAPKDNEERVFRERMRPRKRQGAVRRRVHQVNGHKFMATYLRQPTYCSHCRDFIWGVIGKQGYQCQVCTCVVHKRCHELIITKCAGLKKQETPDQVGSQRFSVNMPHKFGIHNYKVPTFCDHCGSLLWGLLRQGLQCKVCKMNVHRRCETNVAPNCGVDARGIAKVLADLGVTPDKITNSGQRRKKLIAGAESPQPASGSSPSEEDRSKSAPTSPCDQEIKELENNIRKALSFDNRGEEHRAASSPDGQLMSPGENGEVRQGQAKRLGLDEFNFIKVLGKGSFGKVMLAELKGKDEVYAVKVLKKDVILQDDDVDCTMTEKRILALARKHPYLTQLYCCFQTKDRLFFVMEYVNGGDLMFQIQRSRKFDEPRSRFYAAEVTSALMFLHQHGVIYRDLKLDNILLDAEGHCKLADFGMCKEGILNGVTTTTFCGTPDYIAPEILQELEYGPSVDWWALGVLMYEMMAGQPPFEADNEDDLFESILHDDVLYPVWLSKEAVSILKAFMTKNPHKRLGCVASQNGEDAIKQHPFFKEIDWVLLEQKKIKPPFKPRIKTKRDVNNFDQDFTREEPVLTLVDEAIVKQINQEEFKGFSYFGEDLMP
The note with it: for competition: PKC ε, 10 µM. As for the experimental part: as §1, §2

In the next assay the target is T6, CDK2 (Homo sapiens, UniProt P24941).
T6 construct: purchased Ambit Biosciences (KINOMEscan)
The note with it: for % Competition: 10 µM. On the procedure: as §1, §2

T1 sequence (Q8IU85 whole entry): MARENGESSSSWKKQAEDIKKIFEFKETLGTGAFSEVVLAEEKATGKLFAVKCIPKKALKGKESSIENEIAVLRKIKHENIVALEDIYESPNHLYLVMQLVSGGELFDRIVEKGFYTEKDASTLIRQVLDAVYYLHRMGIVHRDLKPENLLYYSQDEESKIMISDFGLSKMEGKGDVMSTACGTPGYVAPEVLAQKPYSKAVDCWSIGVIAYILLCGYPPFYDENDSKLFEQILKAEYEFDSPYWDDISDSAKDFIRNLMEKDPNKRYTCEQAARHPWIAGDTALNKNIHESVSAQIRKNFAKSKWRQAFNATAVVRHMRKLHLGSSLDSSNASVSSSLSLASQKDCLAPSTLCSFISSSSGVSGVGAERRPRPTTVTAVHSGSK
T4 sequence (Q00526 whole entry): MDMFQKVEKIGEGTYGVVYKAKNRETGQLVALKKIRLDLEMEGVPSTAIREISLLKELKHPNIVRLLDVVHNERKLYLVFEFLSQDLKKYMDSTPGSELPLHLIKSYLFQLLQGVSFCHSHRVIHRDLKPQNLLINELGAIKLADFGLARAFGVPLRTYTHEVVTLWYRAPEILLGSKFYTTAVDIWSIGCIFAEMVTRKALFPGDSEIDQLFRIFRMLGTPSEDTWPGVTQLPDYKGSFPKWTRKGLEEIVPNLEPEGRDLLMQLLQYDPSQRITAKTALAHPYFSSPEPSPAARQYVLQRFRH

As to `CC(O)CNc1cc(-c2[nH]c3cccnc3c2-c2ccc(F)cc2)ccn1` (stereo not drawn) [Compound 140], the competition at CAMKIδ and on PKC ε was under 50% each time. Also, the inhibition at 10 µM at EPHB4 (read-out: % Competition) and on FLT3(D835Y) (read-out: % Competition) was under 50% in each case. Besides, the “% Competition” value at CDK3 and at CDK2 was under 50% each time.

On to `Fc1ccc(-c2c(-c3ccncc3)[nH]c3nccnc23)cc1` [RO1155697-000-005], for which the inhibition at 10 µM at CAMKIδ (CAMK1D, compound concentration 10 uM, read-out: Percent Competition) is under 50%; at EPHB4 (EPHB4, compound concentration 10 uM, read-out: Percent Competition), 72%; on FLT3(D835Y) (FLT3(D835Y), compound concentration 10 uM, read-out: Percent Competition) it was 76%; at PKC ε (PRKCE, compound concentration 10 uM, read-out: Percent Competition), under 50%. In addition, the “Percent Competition” value at CDK3 (compound concentration 10 uM) is reported as 92%; on CDK2 (compound concentration 10 uM) it was 93%.

As for `Fc1ccc(-c2c(-c3ccncc3)[nH]c3nccnc23)cc1` [Compound 122], the competition at CAMKIδ and on PKC ε was under 50% throughout. Besides, the inhibition at 10 µM was determined as 72% on EPHB4 (EPHB4, 10 µM, read-out: % Competition) and 76% on FLT3(D835Y) (FLT3(D835Y), 10 µM, read-out: % Competition). Also, the “% Competition” value at CDK3 is on record as 92%; at CDK2, 93%.
